Measurements published in patent US20130209515A1, “ANTI-INFECTIVE AND IMMUNOMODULATORY COMPOUNDS” (priority 2005, published 2013).
Converted amounts (≈) assume the structure as drawn. “Also recorded” adds a separate entry of the source.

How the values were obtained:
[1] = system: 4-hydroxy-2-alkylquinoline (HAQ) production; type: cell-based, Pseudomonas aeruginosa
[2] = system: pqsA-LacZ (MvfR-dependent pqs operon transcription); test: pqsA-LacZ expression (β-galactosidase activity); type: cell-based, Pseudomonas aeruginosa; conditions: PA14 pqsH/pqsA double mutant, compound added at OD600 1.0 (FIG. 19)
Experimental: To assess the effect of this compound on bacteria, we analyzed the production of HAQs in the presence of 2AA using LC/MS. The bacteria were propagated in the presence of 3 mM 2AA, culture media was collected at different time points, and the HHQ, PQS and HQNO production was measured in the supernatant. […] Since 2AA addition to the P. aeruginosa culture inhibits the production of HHQ and PQS, we assessed the transcription from the pqs operon using a pqsA-LacZ fusion.
To further, understand the mechanism of inhibition of the pqs operon by 2AA, we carried out competition assays of PQS and HHQ with 2AA. The expression of pqsA-LacZ in pqsApqsH double mutants was assessed. Bacteria were grown to an OD600 of 1.0 and HHQ and PQS were added either alone or with 2AA. LacZ expression was assayed at different stages of the growth, using standard protocols.
To determine whether HHQ activates MvfR expression, we generated a PA14pqsH/pqsA double mutant that lacks all HAQ production, and assessed pqsA-lacZ activity in the absence and presence of HHQ and PQS.

MvfR = target: T1, MvfR (Pseudomonas aeruginosa, UniProt Q9I4X0); test: MvfR binding to radiolabeled pqsA promoter DNA fragment (gel shift); conditions: 40 pM ligand, E. coli cell lysate containing MvfR (FIGS. 20A, 20B)
T1 construct: made in house; host or cells: E. coli (cell lysate, not purified)
T1 sequence (Q9I4X0 whole entry, the tested form may be a part): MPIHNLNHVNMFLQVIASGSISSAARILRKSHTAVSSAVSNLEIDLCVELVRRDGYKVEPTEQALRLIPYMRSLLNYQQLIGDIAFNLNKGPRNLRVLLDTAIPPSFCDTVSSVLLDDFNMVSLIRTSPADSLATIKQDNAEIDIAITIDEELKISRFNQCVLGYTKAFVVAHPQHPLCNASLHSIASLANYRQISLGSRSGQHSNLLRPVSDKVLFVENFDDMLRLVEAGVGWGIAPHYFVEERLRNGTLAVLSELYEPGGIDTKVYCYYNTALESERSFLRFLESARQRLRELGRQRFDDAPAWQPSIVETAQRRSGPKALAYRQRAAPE
Experimental: FIGS. 20A and 20B show binding of MvfR to the pqsA promoter. FIG. 20A is a gel showing that MvfR binds to the pqsA promoter in the absence of HHQ or PQS, but that binding is increased in the presence of HHQ or PQS. A ^32P-labeled 174-bp DNA fragment containing the pqsA promoter region was mixed with E. coli cell lysate containing MvfR minus ligand (lanes 2-3); plus 40 pM HHQ (lanes 4-5); or plus 40 pM PQS (lanes 6-7). Protein added per reaction: lane 1, 0 ng/μl; lanes 2, 4, and 6, 30 ng/μl; and lanes 3, 5, and 7, 60 ng/μl. HHQ and PQS were added at the final concentration of 40 pM. Reaction mixtures were electrophoresed on 5% non-denatured polyacrylamide gels. FIG. 20B is a graph showing the densitometry of shifted bands.
To determine if HHQ potentiates MvfR DNA-binding, a 174-bp radiolabeled pqsA promoter region DNA fragment containing the potential LysR-box sequence was mixed with E. coli cell lysate containing MvfR.

PqsA = target: T2, PqsA (Pseudomonas aeruginosa, UniProt Q9I4X3); test: Anthranilic acid accumulation and AA competition in PA14 cultures; type: cell-based; conditions: for accumulation of anthranilic acid: PA14 culture with inhibitor vs control (FIG. 31); for effect of increasing concentrations of AA on inhibition of HAQ production: culture containing 1.5 mM inhibitor (FIG. 32)
T2 construct: endogenous in cells; host or cells: P. aeruginosa PA14 cultures
T2 sequence (Q9I4X3 whole entry): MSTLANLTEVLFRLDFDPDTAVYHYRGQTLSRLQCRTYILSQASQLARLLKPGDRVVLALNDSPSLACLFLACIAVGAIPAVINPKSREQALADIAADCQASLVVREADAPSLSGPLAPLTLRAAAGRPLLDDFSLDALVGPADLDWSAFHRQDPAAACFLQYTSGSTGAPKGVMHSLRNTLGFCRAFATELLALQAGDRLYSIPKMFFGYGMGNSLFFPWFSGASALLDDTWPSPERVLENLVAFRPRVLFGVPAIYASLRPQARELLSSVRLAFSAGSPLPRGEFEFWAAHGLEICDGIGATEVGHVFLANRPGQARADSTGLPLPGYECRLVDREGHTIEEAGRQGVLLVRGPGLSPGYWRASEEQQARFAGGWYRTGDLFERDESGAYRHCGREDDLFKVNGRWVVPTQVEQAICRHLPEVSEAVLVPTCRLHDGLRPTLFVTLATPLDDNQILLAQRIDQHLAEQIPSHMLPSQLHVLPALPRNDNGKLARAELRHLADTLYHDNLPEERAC
Excerpt: In P. aeruginosa anthranilic acid is also produced by the enzymatic systems PhnAB or TrpEG. […] This accumulation could be due to inhibition of PqsA or of any enzyme downstream in the HAQ biosynthesis. […] This reversal could only be explained by a competitive inhibition of an enzyme acting on AA. Because pqsA is the only enzyme of the pqsA-E operon to present similarities with enzymes involved in the activation of aromatic acid group, like the one found in anthranilic acid, we conclude that these inhibitors act on PqsA in a competitive manner with its substrate AA.

P. aeruginosa = P. aeruginosa growth kinetics (spectrophotometric analysis at 600 nm); type: cell-based, Pseudomonas aeruginosa; conditions: for bacterial growth (PA14): FIG. 23B
Excerpt: P. aeruginosa strains include wild-type (PA14, see Rahme et al., Science 268:1899-1902, 1995); a PA14 mvfR mutant (Cao et al., Proc. Natl. Acad. Sci. USA 98:14613-14618, 2001); a pqsE deletion mutant, generated via pEX18Ap allelic replacement by using sucrose selection (Hoang et al., Gene 212:77-86, 1998), resulting in a 570-bp nonpolar deletion covering 65% of the sequence (Déziel et al. PNAS); and the pqsA (U479) TnphoA mutant obtained from the PA14 Transposon Insertion Mutant Database. Bacteria were grown in LB broth or on 1.5% Bacto-agar (Difco) LB plates. Freshly plated cells served as inoculum.
P. aeruginosa was grown in the presence of 2 mM of 2′-aminoacetophenone (2AA), 3′-aminoacetophenone (3AA), 4′-aminoacetophenone (4AA), or 2′-nitroacetophenone (2NA), or in the absence of any of these compounds (control). Bacterial growth was followed over 26 hours by spectrophotometric analysis at 600 nm.
Bacterial growth was also followed over 35 hours by spectrophotometric analysis at 600 nm.

P. aeruginosa PA14 [3] = test: PA14 systemic spread in BI mice (cfu in muscle and blood); type: in vivo
Experimental: Furthermore, 6-FABA, 6CABA, and 4CABA efficacy in limiting PA14 systemic spread was assessed by comparing burn mice infected with PA14 and then treated with the compounds at 6 hr BI with control untreated BI mice. For each experimental set of n=18, 6 mice were sacrificed at 24 hr, and bacteria numbers were determined in muscle tissue underlaying or adjacent to the […] site and in blood. The inoculation procedure used in the thermal injury model greatly limits the initial delivery of bacteria to blood and muscle, so bacteria in these tissues reflect post-infection systemic spread.
In an experiment to determine the whether 6-fluoro-2-aminobenzoic acid (6FABA) affects the systemic spread of P. aeruginosa cells in a mouse burn/infection model, the results of which are shown in FIGS. 28A and 28B, 15 mice were treated with 100 μL of a 20 mM solution of 6-FABA 6 hrs or 12 hours post-burn and infection, and the PA14 cfu/mg of tissue (i.e., in blood and in muscle adjacent to the burn and infection) was determined at 24 hours and 36 hours post-burn.

P. aeruginosa PA14 [4] = test: Mouse burn and infection (BI) model, survival; type: in vivo, mice; conditions: for final mice survival rate at 7 days post burn and infection: single IV injection at 6 hrs (100 μl 20 mM), control 10% (FIG. 24); for average survival after 5 days: IV tail vein 100 μl of 10 mM, four days prior to burn/infection, n=8-10, control 10% (FIG. 9)
Experimental: Burn wound infection in mice can be established by subcutaneous or topical administration of the bacteria to the sites of the burn. […] Six-week old CD-1 male mice were used.
To induce infection, the mice were placed under general anesthesia via intraperitonial injection of 40 mg/kg Pentobarbital, the ventral surface was shaved, and a central skin fold elevated was simultaneously compressed from both sides for 5 seconds using two 2×2 cm metal blocks preheated to 95-100° C., to produce a non-lethal 5-8% full thickness burn with negligible focal necrosis of the underlying muscle or damage to underlying visceral organs. IP saline was administered for fluid resuscitation for ≧5% total body surface burns: avoiding vital structures, saline was injected into the left lower quadrant of the abdominal area of the anesthetized animal post-burn. This burn procedure was followed by mid-eschar inoculation of 100 μL of bacterial suspension containing ˜5×10^5 CFU. The animals were returned to their cages and provided mouse chow and water ad libitum. Animals typically recover from the anesthesia within 20 minutes post-administration. Criteria used to evaluate anesthesia recovery are state of alertness, mobility, and reaction to surrounding stimuli. Mice were monitored twice a day for symptoms and deaths, with increased monitoring every 6-8 hours during the period of greatest potential for infection and clinical disease.
The mouse full-thickness skin thermal injury infection model was used to test if 2AA restricts P, aeruginosa virulence. This model is predictable and reproducible; clinically relevant; and can lead to MODS and mortality. Briefly, a ˜15% total burn surface area (TBSA) thermal scalding injury is produced on the abdominal skin, leaving the underlying muscle intact, and the inoculum is delivered into the scald eschar. […]

[5] = Toxicity of IV 6-FABA in burned mice; type: in vivo
Experimental: Initial experiments were aimed at defining an appropriate mouse administration protocol for 6-FABA, with regard to concentration, time of administration following infection, and inhibition of virulence. […] Accordingly, burn and PA14 infected (BI) mice were subsequently administered a single injection of 20 mM 6-FABA at 6 or 12 hr post BI; and double injections at 6 and 24 hr BI.

physchem = conditions: saline or isotonic
pyocyanin production = test: Pyocyanin production; type: cell-based, Pseudomonas aeruginosa
[6] = 2 mM compound, followed over 26 hours at 600 nm (FIG. 4)

SMILES: Nc1cc(F)ccc1C(=O)O [4-FABA, 4-fluoro-2-aminobenzoic acid]
- inhibition of 4-hydroxy-2-alkylquinoline (HAQ) production [1]: potent inhibitors

SMILES: CCCCCCCc1cc(O)c2ccccc2n1 [HHQ, 4-hydroxy-2-heptylquinoline, reference compound]
- MvfR-dependent pqsA-lacZ activity [2]: induce MvfR-dependent pqsA-lacZ activity
- MvfR-pqsA promoter binding (MvfR): potentiate MvfR-pqsA promoter binding, with weaker activity seen with HHQ versus PQS

SMILES: CCCCCCCc1nc2ccccc2c(O)c1O [PQS, 3,4-dihydroxy-2-heptylquinoline, reference compound]
- MvfR-dependent pqsA-lacZ activity [2]: induce MvfR-dependent pqsA-lacZ activity
- MvfR-pqsA promoter binding (MvfR): potentiate MvfR-pqsA promoter binding

SMILES: Nc1ccc(F)cc1C(=O)O [5-FABA, 5-fluoro-2-aminobenzoic acid]
- HAQ production / HAQs synthesis [1]: inhibited HAQ production
- inhibition of 4-hydroxy-2-alkylquinoline (HAQ) production [1]: potent inhibitors

SMILES: Nc1cccc(F)c1C(=O)O [6-FABA, 6-fluoro-2-aminobenzoic acid]
- accumulation of anthranilic acid (PqsA): transient accumulation
- effect of increasing concentrations of AA on inhibition of HAQ production (PqsA): reversed the inhibition
- bacterial growth (PA14) (P. aeruginosa): without affecting bacterial growth
- systemic dissemination of P. aeruginosa (cfu/mg in muscle adjacent to burn) (P. aeruginosa PA14 [3]; 100 μL of 20 mM 6-FABA post-burn and infection (FIG. 28A)): limits significantly the systemic dissemination
- bacteria in blood (P. aeruginosa PA14 [3]; 100 μL of 20 mM 6-FABA, blood at 24 hrs (FIG. 28B)): no bacteria are detected
- HAQ production / HAQs synthesis [1]: inhibited HAQ production; also recorded: completely halted
- inhibition of 4-hydroxy-2-alkylquinoline (HAQ) production [1]: potent inhibitors; also recorded: potently inhibit
- production of the principal members of the three main HAQ families (HHQ, HQNO, PQS) [1]: dramatically decreased; also recorded: strongly inhibited
- time course of mortality (P. aeruginosa PA14 [4]; single IV injection 20 mM at 6 hr BI (FIG. 26)): delayed mortality
- survival (P. aeruginosa PA14 [4]; single IV injection 20 mM at 6 hr BI, control 10% (FIG. 26)): 40%
- survival (P. aeruginosa PA14 [4]; single IV injection 20 mM at 12 hr BI (FIG. 26)): up to 60%
- final mice survival rate at 7 days post burn and infection (P. aeruginosa PA14 [4]): ~35%
- toxicity (deaths) ([5]; second IV injection of 20 mM at 12 or 18 hr): a significant number of mice die
- mortality ([5]; second IV injection of 20 mM at 24 hr): 10%
- toxicity ([5]; single IV injection 100 μl 20 mM, 6 hrs post-burn): non-toxic
- solubility (physchem): 20 mM (≈ 3100 µg/mL)
- pyocyanin production (pyocyanin production): without abrogating pyocyanin production

SMILES: CC(=O)c1ccccc1[N+](=O)[O-] [2NA, 2′-nitroacetophenone]
- Bacterial growth (P. aeruginosa; [6]): only slightly retarded
- average survival after 5 days (P. aeruginosa PA14 [4]): 50%

SMILES: Nc1cccc(Cl)c1C(=O)O [6-CABA, 6-chloro-2-aminobenzoic acid]
- accumulation of anthranilic acid (PqsA): transient accumulation
- effect of increasing concentrations of AA on inhibition of HAQ production (PqsA): reversed the inhibition
- bacterial growth (PA14) (P. aeruginosa): without affecting bacterial growth; also recorded: does not inhibit PA14 growth
- HAQ production / HAQs synthesis [1]: inhibited HAQ production; also recorded: completely halted
- inhibition of 4-hydroxy-2-alkylquinoline (HAQ) production [1]: potent inhibitors
- production of the principal members of the three main HAQ families (HHQ, HQNO, PQS) [1]: dramatically decreased
- final mice survival rate at 7 days post burn and infection (P. aeruginosa PA14 [4]): ~40%
- pyocyanin production (pyocyanin production): without abrogating pyocyanin production

SMILES: CC(=O)c1ccc(N)cc1 [4AA, 4′-aminoacetophenone]
- Bacterial growth (P. aeruginosa; [6]): only slightly retarded
- average survival after 5 days (P. aeruginosa PA14 [4]): 50%

SMILES: Nc1cc(Cl)ccc1C(=O)O [4-CABA, 4-chloro-2-aminobenzoic acid]
- accumulation of anthranilic acid (PqsA): transient accumulation
- Bacterial growth (P. aeruginosa; 1.5 mM compound, followed over 35 hours at 600 nm (FIG. 6)): only slightly retarded
- bacterial growth (PA14) (P. aeruginosa): without affecting bacterial growth
- HAQ production / HAQs synthesis [1]: completely halted
- inhibition of 4-hydroxy-2-alkylquinoline (HAQ) production [1]: potent inhibitors
- production of the principal members of the three main HAQ families (HHQ, HQNO, PQS) [1]: dramatically decreased
- final mice survival rate at 7 days post burn and infection (P. aeruginosa PA14 [4]): ~50%
- pyocyanin production (pyocyanin production): without abrogating pyocyanin production

SMILES: CC(=O)c1cccc(O)c1N [2-amino-3 hydroxy acetophenone]
- protection (survival curves) (P. aeruginosa PA14 [4]; 10 mM solutions IV 4 days pre-BI (FIGS. 11A, 11B)): decreased protective efficacy versus 2AA

SMILES: CC(=O)c1cccc(N)c1 [3AA, 3′-aminoacetophenone]
- Bacterial growth (P. aeruginosa; [6]): only slightly retarded
- average survival after 5 days (P. aeruginosa PA14 [4]): 50%

SMILES: COC(=O)c1ccccc1N [MA, methyl anthranilate, reference compound]
- PA14 growth (P. aeruginosa; methylanthranilate (FIG. 25B)): inhibits PA14 growth
- PQS production [1]: prevents PQS production
- levels of HAQs [1]: reduces the levels of several HAQs
- production of N-oxides [1]: production of N-oxides at very high concentrations
